Data from US9586963B2 (GENFIT, priority 2011, dated 2017).

Key:
[1] = tested on: Bmal1; experiment: Gene expression of Rev-Erb alpha target gene Bmal1 in tissues of treated db/db mice; format: in vivo; details: 25 and 100 mpk, adipose tissue, muscle, liver
Source text: At the end of the treatment period, animals were anesthetized with isoflurane and then sacrificed by cervical dislocation. Liver, quadriceps muscle and epididymal adipose tissues were collected. The Student's t-test was used to test for statistical differences between drug and vehicle treatments when a single dose of drug was used while ANOVA followed by Dunnett's Multiple Comparison post hoc test was used for dose responses.
Gene expression studies have been performed on mRNA isolated from different metabolic tissues such as liver, adipose tissue and skeletal muscle. […] is considered as a target gene of Rev-Erba. Activation of Rev-Erba activity should then translate in a reduction of […] gene expression.

[2] = tested on: db/db mice; experiment: Oral glucose tolerance test in db/db mice; format: in vivo; details: 50 mpk
Method: Oral glucose tolerance test (OGTT) was performed as followed, at day 35 of treatment, after a 16-hour fasting period, an oral glucose load was administered at T=0 (2 g/kg of glucose, 10 mL/kg) and glycemia was measured at the tail vein at T=15, 30, 60, 90, 120 & 180 minutes.
Oral glucose tolerance test is a widely used assay perform to assess the body's tolerance to an orally glucose bolus, it is considered as a good marker of insulin resistance and diabetes. […] Improvement of the body's insulin sensitivity is illustrated on FIG. 3(b).

[3] = target: T1, Rev-Erb alpha (Homo sapiens, UniProt P20393); experiment: M2H (mammalian two-hybrid) cellular activation assay of Rev-Erb alpha; format: cell-based; details: M2H assay, HEK293 cells, Gal4-Rev-Erb alpha / VP16-NCoR, luciferase reporter
T1 sequence (P20393 284-614 limits assumed): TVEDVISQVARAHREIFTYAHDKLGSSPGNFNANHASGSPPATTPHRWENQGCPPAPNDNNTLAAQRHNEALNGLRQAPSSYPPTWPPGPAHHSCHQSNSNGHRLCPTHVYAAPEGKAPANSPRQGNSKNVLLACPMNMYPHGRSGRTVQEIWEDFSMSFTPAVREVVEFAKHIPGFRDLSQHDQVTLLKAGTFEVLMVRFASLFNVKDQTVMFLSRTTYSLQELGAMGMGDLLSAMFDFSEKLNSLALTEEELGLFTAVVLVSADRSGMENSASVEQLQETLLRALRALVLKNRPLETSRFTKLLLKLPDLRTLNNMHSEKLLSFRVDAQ
Summary of the method: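 Six-point dose-response, 18 h, 37 °C, serum-free, in HEK293 cells carrying a Gal4-RE luciferase reporter with Gal4-Rev-Erb alpha or beta plus VP16-NCoR (corepressor interaction readout). EC50 and TOP activation (%) derived from luminescence across four experiments.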

[4] = tested on: db/db mice; experiment: In vivo evaluation in db/db mice: glycemia, HbA1c, plasma triglycerides; details: once daily by gavage, 28 days
Method: 7-weeks-old male db/db mice were purchased from Charles River (France). Mice were 9-weeks-old at the beginning of the study. All mice were housed 2 per cage under controlled conditions of humidity, lighting and temperature. They had free access to food (R03, SAFE) and water.
Mice were randomized according to their body weight, and the non-fasting glycaemia, and assigned to 3 different groups: • Group 1: Control_Vehicle n=8 • Group 2: Cpd-4-39 25 mg/kg n=8 • Group 3: Cpd-4-39 100 mg/kg n=8 Treatments and Sample Analysis
The treatments were administered once daily, by gavage (10 mL/kg) for 28 consecutive days (unless otherwise mentioned). For oral administrations, compound was suspended in CMC 1%+Tween 80 0.1%.
Non fasting blood glucose level was determined from tail vein blood using a glucometer (Smart Chek, Kitvia), Blood samples were withdrawn under anesthesia by retro-orbital puncture at the end of the treatment period. Tubes containing blood were rapidly centrifuged after collection (15 minutes at 4,000 rpm/4° C.) and the plasma fraction was collected. Plasma aliquots were stored at −20° C. for further analyses.
The blood concentration of glycosylated hemoglobin A1c was determined using the Randox kit for Daytona automate (Randox, cat# HA 3830) according to the manufacturer's recommendations. Total hemoglobin and HbA1c concentrations were measured and the HbA1c result was expressed as a percentage of the total hemoglobin concentration.
The triglyceride content of plasma was measured using the Randox kit for Daytona automate (Randox, cat# TR 3823) according to the manufacturer's recommendations. In this protocol, the triglycerides are hydrolyzed by a lipase. The resulting glycerol concentration is then measured by an enzymatic method and spectrophotometric measurement. Results are expressed in mg/dL. • Oral Glucose Tolerance Test
At the end of the treatment period, animals were anesthetized with isoflurane and then sacrificed by cervical dislocation. Liver, quadriceps muscle and epididymal adipose tissues were collected. […]

[5] = high clearance and rapid metabolism; cited from earlier work
[6] = tested on: Bmal1; details: cell culture, dose-dependent; cited from earlier work
[7] = tested on: 3T3-L1 cells; details: lipid accumulation and adipogenic genes; cited from earlier work
[8] = target: T2, Rev-Erb alpha (Homo sapiens, UniProt P20393); details: FRET assay; Meng Q J et al., 2008; cited from earlier work
T2 sequence (P20393 1-614): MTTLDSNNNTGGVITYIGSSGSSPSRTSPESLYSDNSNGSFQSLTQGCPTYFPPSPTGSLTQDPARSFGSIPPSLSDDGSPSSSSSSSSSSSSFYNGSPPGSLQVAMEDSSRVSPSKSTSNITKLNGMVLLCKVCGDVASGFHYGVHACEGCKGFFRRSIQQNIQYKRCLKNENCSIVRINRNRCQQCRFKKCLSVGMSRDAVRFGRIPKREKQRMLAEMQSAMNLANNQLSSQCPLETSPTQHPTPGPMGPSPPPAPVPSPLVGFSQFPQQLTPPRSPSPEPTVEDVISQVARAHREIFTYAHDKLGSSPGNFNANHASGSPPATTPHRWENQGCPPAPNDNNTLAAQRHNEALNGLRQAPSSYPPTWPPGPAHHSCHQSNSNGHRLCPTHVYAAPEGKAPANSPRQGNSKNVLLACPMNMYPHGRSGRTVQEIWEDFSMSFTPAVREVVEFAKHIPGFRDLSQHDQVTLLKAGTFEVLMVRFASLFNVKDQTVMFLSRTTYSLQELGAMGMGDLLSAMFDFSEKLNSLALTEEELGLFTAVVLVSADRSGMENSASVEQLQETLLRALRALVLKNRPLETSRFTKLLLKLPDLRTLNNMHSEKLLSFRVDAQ

[9] = target: T2, Rev-Erb alpha; details: Moore J T et al., 2006; cited from earlier work

FC(F)(F)c1ccc(-c2cccnc2)c(Oc2ccc3nnc(Cl)n3n2)c1
Small expression in the studied organs (Bmal1 gene expression, FIGS. 13) [1]: significant inhibition | area under the curve, glucose tolerance ([2]; OGTT): Cpd-4-39 dependent effect on glucose tolerance | evolution of blood glucose in oral glucose tolerance test ([2]; day 35, 16-hour fasting, 2 g/kg glucose): improved evolution of their blood glucose | EC50 [3]: 100 to 1000 nM | Circulating triglycerides ([4]; 25 and 100 mpk): reduced | HbA1c ([4]; 25 and 100 mpk): significantly reduced | glycemia ([4]; 100 mpk, compared to control mice): significantly reduced

CC(C)(C)OC(=O)CN(Cc1ccc(Cl)cc1)Cc1ccc([N+](=O)[O-])s1 [GSK4112]
pharmacokinetic properties [5]: poor pharmacokinetic properties | Bmal1 expression [6]: decreases Bmal1 expression | adipogenesis [7]: induces adipogenesis | interaction of NCoR-derived peptide with Rev-Erb alpha [8]: dose-dependently increasing the interaction

C=CC1=C(C)c2cc3[n-]c(cc4[n-]c(cc5nc(cc1n2)C(C)=C5C=C)c(C)c4CCC(=O)O)c(CCC(=O)O)c3C.[Fe+2] [Heme]
Kd [9]: 2000 to 3000 nM
